Data set [1] deals with HCT-116 human colon cancer cell line. In words: Cell viability testing of HCT-116 cells (Cell Counting Kit-8, WST-8 reagent). In kind it is cell-based. To be noted: for IC50: Homo sapiens. On the procedure:
Cell culture: The HCT-116 human colon cancer cell line was acquired from the American Type Culture Collection (Manassas, VA, USA). The cells were grown in Dulbecco's […] medium (DMEM) with 10% fetal bovine serum and 100 IU/ml of penicillin/streptomycin.
Cell viability testing: HCT-116 cells were cultivated at subconfluence overnight in Dulbecco's modified Eagle's medium in 96-well plates (1.0×10^3 cells per well). The following day, HCT-116 cells were treated with concentrations of rMETase ranging from 0.125 to 8 U/ml or regorafenib ranging from 0.25 μM to 16 μM. Regorafenib was purchased from MedChemExpress (Monmouth Junction, NJ, USA). After 72 h of treatment, cell viability was assessed using the Cell Counting Kit-8 (Dojindo Laboratory, Kumamoto, Japan) with the WST-8 reagent.
ImageJ version 1.53 (National Institutes of Health, Bethesda, MD, USA) was applied to calculate IC50 values and sensitivity curves. After calculating the half-maximal inhibitory concentration (IC50) for rMETase and regorafenib, the […]. concentrations of both drugs were used to determine the synergistic efficacy of the combination of the drugs. Finally, the IC50 study was repeated for regorafenib on HCT-116 cells treated in combination with the IC50 concentration of rMETase to examine whether methionine restriction increased the efficacy of regorafenib. Each experiment was carried out in triplicate.
Statistics: GraphPad Prism 9.4.0 (GraphPad Software, Inc., San Diego, CA, USA) was used to conduct all statistical analyses. Tukey's multiple comparison test was performed for the parametric test of comparison between groups. All data are presented as the mean and standard deviation. The significance level was p≤0.05.
In general terms: Tetrazolium dyes change colour on reduction, which living cells bring about.

In data set [2] the test system is human colorectal cancer cell line. The note with it: in vitro; cited from earlier work.
For data set [3] the following is noted: patients; oral regorafenib; cited from earlier work.

Results on two compounds are retold here after patent publication US20250302813A1, “RECOMBINANT METHIONINASE IN THE TREATMENT OF CANCER” (ANTICANCER INC, priority 2024, published 2025).

Read-outs that look alike come from different tables or passages of the source.

On to `CNC(=O)c1cc(Oc2ccc(NC(=O)Nc3ccc(Cl)c(C(F)(F)F)c3)c(F)c2)ccn1` [regorafenib, 4-[4-[[4-chloro-3-(trifluoromethyl)phenyl]carbamoylamino]-3-fluorophenoxy]-N-methylpyridine-2-carboxamide], for which the IC50 in data set [1] (HCT-116, 72 h, addition of rMETase at 0.61 U/ml (its IC50), 72 h, WST-8, read-out: IC50 of regorafenib in combination with rMETase) was 1460 nM; in data set [1] (HCT-116, 72 h, regorafenib alone, 72 h treatment, WST-8, read-out: IC50 of regorafenib on HCT-116 cells), 2200 nM; in data set [1] (HCT-116, regorafenib alone, read-out: IC50 of regorafenib alone on HCT-116 cells (printed in U/ml)), 2260 nM. Besides, the “Increase of intracellular S-adenosyl-L-methionine (SAM) level compared to the control” value in data set [2] was 34.5%. In data set [3], the “Time to appearance of toxicity after the start of treatment (severe skin rash, diarrhea, hypertension, fatigue)” value was 3 to 4 days.

For “rMETase: recombinant methioninase produced by fermentation of recombinant Escherichia coli transformed with the methioninase gene from Pseudomonas putida”, the “IC50 of rMETase on HCT-116 cells” value in data set [1] (rMETase alone, 72 h treatment, WST-8) turned out to be 0.61 U/ml.
